Calls of active or inactive are those of the source. The rule behind the calls is not given here.
System: CCRIS mutagenicity, Ames/micronucleus/aberration tests
Assay: CCRIS mutagenicity studies

For `CC(C)C1=CC2=CC[C@@H]3[C@](C)(CCC[C@@]3(C)C(=O)O)[C@H]2CC1`, the mutagenic call (Test System: AMES SALMONELLA TYPHIMURIUM, Strain/Indicator: TA98, Metabolic Activation: HAMSTER, LIVER, S-9, AROCLOR 1254, Method: STANDARD PLATE) was “inactive; negative”, the mutagenic call (Test System: AMES SALMONELLA TYPHIMURIUM, Strain/Indicator: TA98, Metabolic Activation: NONE, Method: STANDARD PLATE) was “inactive; negative” and the mutagenic call (Test System: AMES SALMONELLA TYPHIMURIUM, Strain/Indicator: TA98, Metabolic Activation: RAT, LIVER, S-9, AROCLOR 1254, Method: STANDARD PLATE) was “inactive; negative”. For the same molecule, the mutagenic call (Test System: AMES SALMONELLA TYPHIMURIUM, Strain/Indicator: TA100, Metabolic Activation: HAMSTER, LIVER, S-9, AROCLOR 1254, Method: STANDARD PLATE) was “inactive; negative”, the mutagenic call (Test System: AMES SALMONELLA TYPHIMURIUM, Strain/Indicator: TA100, Metabolic Activation: NONE, Method: STANDARD PLATE) was “inactive; negative” and the mutagenic call (Test System: AMES SALMONELLA TYPHIMURIUM, Strain/Indicator: TA100, Metabolic Activation: RAT, LIVER, S-9, AROCLOR 1254, Method: STANDARD PLATE) was “inactive; negative”. The mutagenic call (Test System: AMES SALMONELLA TYPHIMURIUM, Strain/Indicator: TA1535, Metabolic Activation: HAMSTER, LIVER, S-9, AROCLOR 1254, Method: STANDARD PLATE) was “inactive; negative”, the mutagenic call (Test System: AMES SALMONELLA TYPHIMURIUM, Strain/Indicator: TA1535, Metabolic Activation: NONE, Method: STANDARD PLATE) was “inactive; negative” and the mutagenic call (Test System: AMES SALMONELLA TYPHIMURIUM, Strain/Indicator: TA1535, Metabolic Activation: RAT, LIVER, S-9, AROCLOR 1254, Method: STANDARD PLATE) was “inactive; negative”. For the same molecule, the mutagenic call (Test System: AMES SALMONELLA TYPHIMURIUM, Strain/Indicator: TA1537, Metabolic Activation: HAMSTER, LIVER, S-9, AROCLOR 1254, Method: STANDARD PLATE) was “inactive; negative”, the mutagenic call (Test System: AMES SALMONELLA TYPHIMURIUM, Strain/Indicator: TA1537, Metabolic Activation: NONE, Method: STANDARD PLATE) was “inactive; negative” and the mutagenic call (Test System: AMES SALMONELLA TYPHIMURIUM, Strain/Indicator: TA1537, Metabolic Activation: RAT, LIVER, S-9, AROCLOR 1254, Method: STANDARD PLATE) was “inactive; negative”. For the same molecule, the mutagenic call (Test System: AMES SALMONELLA TYPHIMURIUM, Strain/Indicator: TA1538, Metabolic Activation: HAMSTER, LIVER, S-9, AROCLOR 1254, Method: STANDARD PLATE) was “inactive; negative”, the mutagenic call (Test System: AMES SALMONELLA TYPHIMURIUM, Strain/Indicator: TA1538, Metabolic Activation: NONE, Method: STANDARD PLATE) was “inactive; negative” and the mutagenic call (Test System: AMES SALMONELLA TYPHIMURIUM, Strain/Indicator: TA1538, Metabolic Activation: RAT, LIVER, S-9, AROCLOR 1254, Method: STANDARD PLATE) was “inactive; negative”. For the same molecule, the mutagenic call (Test System: MOUSE LYMPHOMA, Strain/Indicator: L5178Y (TK+/TK-), Metabolic Activation: NONE, Method: SUSPENSION/PLATE) was “active; positive. reevaluation of results: positive” and the mutagenic call (Test System: MOUSE LYMPHOMA, Strain/Indicator: L5178Y (TK+/TK-), Metabolic Activation: RAT, LIVER, S-9, AROCLOR 1254, Method: SUSPENSION/PLATE) was “inactive; negative. reevaluation of results: negative”.

Reference: PubChem BioAssay AID1259407 (Chemical Carcinogenesis Research Information System (CCRIS), 2018)
